Source: patent publication US6395748B2, “Tropane-derivatives, their preparation and use” (NeuroSearch A/S, priority 1996, dated 2002)

Columns and labels:
serotonin transporter = molecular target: T1, serotonin transporter (Rattus norvegicus, UniProt P31652); assay: In vitro inhibition of 3H-5-hydroxytryptamine (3H-5-HT, serotonin) uptake in cortical synaptosomes; assay type: biochemical
T1 construct: Cerebral cortices from male Wistar rats (150-200 g) are homogenized; from tissue; host or cells: rat cerebral cortex synaptosomes (P2 pellet)
Description: Tissue preparation: Preparations are performed at 0-4° C. unless otherwise indicated. […] Monoamine oxidase activity will be inhibited in the presence of pargyline. The homogenate is centrifuged at 1000×g for 10 min.
(§1) Non-specific uptake is determined using citalopram (1 μM, final concentration). After incubation the samples are poured directly onto Whatman GF/C glass fibre filters under suction. The filters are then washed three times with 5 ml of ice-cold 0.9% (w/v) NaCl solution. The amount of radioactivity on the filters is determined by conventional liquid scintillation counting. Specific uptake is calculated as the difference between total uptake and non-specific uptake.

dopamine transporter = molecular target: T2, dopamine transporter (Rattus norvegicus, UniProt P23977); assay: In vitro inhibition of 3H-dopamine (3H-DA) uptake in striatal synaptosomes; assay type: biochemical
T2 construct: Corpi striati from male Wistar rats (150-200 g) are homogenized; from tissue; host or cells: rat striatal synaptosomes (P2 pellet)
Description: Monoamine oxidase activity will be inhibited in the presence of pargyline. The homogenate is centrifuged at 1000×g for 10 min. The resulting supernatant is then centrifuged at 27,000×g for 50 min and the supernatant is discarded.
as §1, with “After” for “Non-specific uptake is determined using citalopram (1 μM, final concentration). After”

T1 sequence (P31652 whole entry): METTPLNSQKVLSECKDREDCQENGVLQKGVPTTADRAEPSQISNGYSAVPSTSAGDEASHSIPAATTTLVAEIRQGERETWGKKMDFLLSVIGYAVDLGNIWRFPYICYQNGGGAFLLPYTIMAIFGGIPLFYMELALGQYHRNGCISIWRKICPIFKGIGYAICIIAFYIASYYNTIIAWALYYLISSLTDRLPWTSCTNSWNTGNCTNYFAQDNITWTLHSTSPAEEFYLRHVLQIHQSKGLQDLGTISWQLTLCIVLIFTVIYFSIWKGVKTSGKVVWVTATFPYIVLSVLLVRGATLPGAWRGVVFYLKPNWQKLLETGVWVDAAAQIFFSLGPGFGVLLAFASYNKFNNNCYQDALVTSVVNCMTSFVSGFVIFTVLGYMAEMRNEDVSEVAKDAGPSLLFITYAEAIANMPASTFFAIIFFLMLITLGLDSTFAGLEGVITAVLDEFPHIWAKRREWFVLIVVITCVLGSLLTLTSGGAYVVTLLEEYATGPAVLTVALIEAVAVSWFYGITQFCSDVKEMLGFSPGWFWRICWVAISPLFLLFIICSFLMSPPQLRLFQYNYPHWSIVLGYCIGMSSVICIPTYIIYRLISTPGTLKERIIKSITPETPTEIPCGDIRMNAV
T2 sequence (P23977 whole entry): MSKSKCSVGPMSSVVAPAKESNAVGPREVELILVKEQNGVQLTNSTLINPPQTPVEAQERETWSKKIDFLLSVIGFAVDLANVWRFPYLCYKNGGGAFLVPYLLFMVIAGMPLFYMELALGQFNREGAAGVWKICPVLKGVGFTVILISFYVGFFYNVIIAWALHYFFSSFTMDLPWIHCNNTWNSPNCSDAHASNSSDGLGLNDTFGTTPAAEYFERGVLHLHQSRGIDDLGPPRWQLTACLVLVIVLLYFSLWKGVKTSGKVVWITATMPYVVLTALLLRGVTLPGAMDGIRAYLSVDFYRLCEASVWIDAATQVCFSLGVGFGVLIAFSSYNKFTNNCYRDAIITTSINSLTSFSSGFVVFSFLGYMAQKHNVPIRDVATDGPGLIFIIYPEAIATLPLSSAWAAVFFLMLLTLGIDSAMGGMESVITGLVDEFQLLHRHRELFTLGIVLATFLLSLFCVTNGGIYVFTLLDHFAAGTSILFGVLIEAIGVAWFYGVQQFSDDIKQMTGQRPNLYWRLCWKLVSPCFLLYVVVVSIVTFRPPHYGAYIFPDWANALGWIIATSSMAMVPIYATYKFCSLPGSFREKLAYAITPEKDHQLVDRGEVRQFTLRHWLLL

`CN1[C@H]2CC[C@@H]1[C@H](CSc1ccccc1)[C@@H](c1ccc(Cl)c(Cl)c1)C2` [(1R,2R,3S)-2-phenylthiomethyl-3-(3,4-dichlorophenyl)-tropane] was tested. Which IC50 (serotonin transporter) did it give?
Its IC50 is 9.2 nM.

And the IC50 (dopamine transporter)?
Its IC50 is 4.3 nM.
